From publication PMC6222425, “Novel 5′-Norcarbocyclic Derivatives of Bicyclic Pyrrolo- and Furano[2,3-d]Pyrimidine Nucleosides” (Molecules : A Journal of Synthetic Chemistry and Natural …, 2018)
Where two headings read alike, the source gives them in different places.

Legend:
[1] = test system: human noncancer cells hFF3 (fibroblasts); assay: Cell viability analysis by MTT assay, normal hFF3 cells; type: cell-based; settings: for IC50: Homo sapiens, HFF-3, 48 h, normal cells, MTT, 48 h incubation, read-out: Antiproliferative activity, IC50, hHFF3; for Toxic effect on normal hFF3 cells: concentrations up to 100 μM
Experimental: (§1) The target compounds were tested on different lines of tumor cells, HuTu-80 (human duodenal cancer), B16 (mouse melanoma), A549 (human lung adenocarcinoma), KB-3-1 (human squamous cell carcinoma), HeLa (human squamous cell carcinoma of the cervix), as well as on human noncancer cells hFF3.
(§2) Human KB-3-1 epidermoid carcinoma cell line, human HeLa cervical epithelioid carcinoma cell line, human HuTu-80 duodenal cancer cells, human A549 lung carcinoma epithelial cells, mouse B16 melanoma cell line and human hFF3 fibroblast cells were obtained from the Russian Cell Culture Collection (St. Petersburg, Russia) and were cultured in DMEM (hFF3 cells in IMDM) supplemented with 10% (v/v) heat-inactivated fetal bovine serum, penicillin (100 U mL^−1), streptomycin (100 µg mL^−1) and amphotericin ([…]). Cells were maintained in a humidified atmosphere of 5% CO2 at 37 °C.
(§3) All compounds were dissolved in dimethylsulfoxide (DMSO) and stock solutions (10 mmol L^−1) were stored at −20 °C.
(§4) Cells growing in the logarithmic phase were seeded in triplicate in 96-well plates at a density of 5 × 10^3 cells per well for HeLa and HuTu-80 cells, 7 × 10^3 cells per well for KB-3-1 and hFF3, 10 × 10^3 for A549 and 20 × 10^3 for B16. The plates were incubated at 37 °C in a humidified 5% CO2 atmosphere. Cells were allowed to adhere to the surface for 24 h and then tested compounds were added at different concentrations and incubation was continued for 48 h. Then [3-(4,5-dimethylthiazol-2-yl)-2,5-diphenyltetrazolium bromide] (MTT) solution (10 µL, 5 mg mL^−1) was added to each well and the incubation was continued for an additional 3 h. The dark blue formazan crystals formed within the healthy cells were solubilized with DMSO and the absorbance was measured using a Multiscan RC plate reader at 570 nm. The IC50 was determined as the compound concentration required to decrease the A570 to 50% compared to the control (no tested compounds, DMSO) and was determined by interpolation from dose-response curves.

[2] = test system: KB-3-1 (human epidermoid carcinoma) cells; assay: Cell viability analysis by MTT assay, KB-3-1; type: cell-based; settings: for IC50: Homo sapiens, KB 3-1, 48 h, MTT, 48 h incubation, read-out: Antiproliferative activity, IC50, KB-3-1; for Selectivity index, KB-3-1: ratio of IC50 on normal hFF3 cells to IC50 of KB-3-1
Experimental: as §1, §2, §3, §4

[3] = test system: HeLa (human cervical epithelioid carcinoma) cells; assay: Cell viability analysis by MTT assay, HeLa; type: cell-based; settings: for IC50: Homo sapiens, HeLa, MTT, 48 h incubation, read-out: Antiproliferative activity, IC50, HeLa; for Selectivity index, HeLa: ratio of IC50 on normal hFF3 cells to IC50 of HeLa
Experimental: as §1, §2, §3, §4

[4] = test system: B16 (mouse melanoma) cells; assay: Cell viability analysis by MTT assay, B16; type: cell-based; settings: for IC50: MTT, 48 h incubation, read-out: Antiproliferative activity, IC50, B16
Experimental: as §1, §2, §3, §4

[5] = test system: HuTu-80 (human duodenal cancer) cells; assay: Cell viability analysis by MTT assay, HuTu-80; type: cell-based; settings: for IC50: Homo sapiens, HuTu80, MTT, 48 h incubation, read-out: Antiproliferative activity, IC50, HuTu80
Experimental: as §1, §2, §3, §4

[6] = test system: A549 (human lung adenocarcinoma) cells; assay: Cell viability analysis by MTT assay, A549; type: cell-based; settings: for IC50: Homo sapiens, A549, MTT, 48 h incubation, read-out: Antiproliferative activity, IC50, A549; for Selectivity index, A549: ratio of IC50 on normal hFF3 cells to IC50 of A549
Experimental: as §1, §2, §3, §4

tumor cells = assay: Cell viability MTT assay, statements on the tumor cell panel as a whole; type: cell-based; settings: for Toxic effect on tumor cells: concentrations up to 100 μM
Experimental: as §1, §2, §4

KB-3-1 cells [7] = assay: Apoptosis detection by Annexin V/PI staining, flow cytometry; type: cell-based, human; settings: 48 h
Experimental: To examine whether the tested 5′-norcarbocyclic derivatives induce cell death via apoptosis Annexin V and propidium iodide analysis were used (Figure 1). […] Annexin V binds phosphatidylserine residues, which are asymmetrically distributed toward the inner plasma membrane, and migrate to the outer plasma membrane during apoptosis.
Exponentially growing KB-3-1 cells in 6–well plates (5 × 10^5 cells per well) were treated with 3i (5, 10 and 20 µM) or with 0.1% (v/v) DMSO as a control for 48 h. The cells were stained with Annexin V-FITC and propidium iodide by the Annexin-FITC apoptosis staining/detection kit (Abcam) according to the instruction of the manufacturer. Briefly, cells were collected by scrapping, washed twice with cold PBS, and centrifuged (400 g, 5 min). Cells were resuspended in binding buffer (500 µL) and Annexin V–FITC (5 µL) and PI (5 µL) were added. Cells were incubated for 5 min at 20 °C in the dark. Finally, binding buffer (300 µL) was added to each tube, and the amount of apoptotic cells in samples were analyzed by flow cytometry. For each sample, 10,000 ungated events were acquired. Annexin V + PI − cells represent the early apoptotic populations. Annexin V + PI + cells represent either late apoptotic or secondary necrotic populations.

KB-3-1 cells [8] = assay: Mitochondria depolarization analysis, JC-1 staining, flow cytometry; type: cell-based, human; settings: 20 µM, KB-3-1, control 0.1% DMSO
Excerpt: We next investigated whether 3i utilizes the mitochondrial ‘intrinsic’ pathway in the apoptotic death of KB-3-1 cells, since the pivotal role of mitochondria in triggering apoptosis is well established. We evaluated the mitochondrial transmembrane potential (∆Ψm) in KB-3-1 cells exposed to 3i using cytofluorometric analysis. Cells were stained with the specific mitochondrial cationic dye JC-1 (5,5′,6,6′-tetrachloro-1,1′,3,3′-tetraethyl benzimidazole carbocyanine iodide) that accumulates in the transmembrane space of polarized mitochondria and forms the so–called «J–aggregates», emitting red fluorescence. A decrease in ∆Ψm results in disappearance of J–aggregates and formation of JC-1 monomers, which emit in a green fluorescence.
Mitochondria involvement in apoptosis was measured by mitochondrial depolarization occurring early during onset of apoptosis. KB-3-1 cells were incubated with 3i (5, 10 and 20 µM) or 0.1% (v/v) DMSO as a control for 48 h. Then, cells were collected and incubated in complete media in the dark with mitochondrial potential sensor JC-1 (5 µg mL^−1) at 37 °C for 30 min, washed with cold PBS and resuspended in PBS (400 µL). Fluorescences of J–aggregate and J–monomer were recorded in the fluorescence channels 2 (FL2) and 1 (FL1), respectively, with flow cytometer «FC500». […]

SMILES	IC50 [2] [µM]	IC50 [3] [µM]	IC50 ([4]; Mus musculus, 48 h) [µM]	IC50 [5] [µM]	IC50 [6] [µM]	IC50 [4] [µM]	IC50 [1] [µM]	Toxic effect on normal hFF3 cells [1]	Toxic effect on tumor cells (tumor cells)	Selectivity index, KB-3-1 [2]	Selectivity index, HeLa [3]	Selectivity index, B16 ([4]; ratio of IC50 on normal hFF3 cells to IC50 of B16)	Apoptotic cells (KB-3-1 cells [7]; 5 µM) [%]	Apoptotic cells (KB-3-1 cells [7]; 20 µM) [%]	Red fluorescence value (JC-1 J-aggregates) as compared to the control (KB-3-1 cells [8])	Selectivity index, HuTu80 ([5]; ratio of IC50 on normal hFF3 cells to IC50 of HuTu80)	Selectivity index, A549 [6]	Selectivity index value (tumor cells; depending on the nature and origin of tumor cells)
CCCc1cc2cn(C3C=CC(O)C3)c(=O)nc2[nH]1 (stereo not shown) [Compound 4a, 1-(4′-Hydroxy-2′-cyclopenten-1′-yl)-6-propyl-3H-pyrrolo[2,3-d]-pyrimidine-2-one]	> 100	> 100	> 100	> 100	> 100		> 100	no toxic effect	no toxic effect									
CCCCCc1cc2cn(C3C=CC(O)C3)c(=O)nc2o1 (stereo not shown) [Compound 3b, 1-(4′-Hydroxy-2′-cyclopenten-1′-yl)-6-pentyl-3H-furano[2,3-d]-pyrimidine-2-one]	> 100	> 100	> 100	> 100	> 100		> 100	no toxic effect	no toxic effect									

Stronger by IC50 [2], values ahead:

IC50 [2] [µM]	IC50 [3] [µM]	IC50 ([4]; Mus musculus, 48 h) [µM]	IC50 [5] [µM]	IC50 [6] [µM]	IC50 [4] [µM]	SMILES	IC50 [1] [µM]	Toxic effect on normal hFF3 cells [1]	Toxic effect on tumor cells (tumor cells)	Selectivity index, KB-3-1 [2]	Selectivity index, HeLa [3]	Selectivity index, B16 ([4]; ratio of IC50 on normal hFF3 cells to IC50 of B16)	Apoptotic cells (KB-3-1 cells [7]; 5 µM) [%]	Apoptotic cells (KB-3-1 cells [7]; 20 µM) [%]	Red fluorescence value (JC-1 J-aggregates) as compared to the control (KB-3-1 cells [8])	Selectivity index, HuTu80 ([5]; ratio of IC50 on normal hFF3 cells to IC50 of HuTu80)	Selectivity index, A549 [6]	Selectivity index value (tumor cells; depending on the nature and origin of tumor cells)
50.3 ± 9.8	70.2 ± 8.9	> 100	> 100	> 100		CCCCCCCCCCc1cc2cn(C3CC(O)C(O)C3O)c(=O)nc2o1 (stereo not shown) [Compound 5, 1-(2′,3′,4′-Trihydroxycyclopent-1′-yl)-6-decyl-3H-furano[2,3-d]-pyrimidine-2-one]	> 100	not toxic		>2	>1.4							
45.4 ± 5.3	90.2 ± 9.6	> 100	> 100	50.2 ± 6.7		O=c1nc2[nH]c(-c3ccccc3)cc2cn1C1C=CC(O)C1 (stereo not shown) [Compound 4g, 1-(4′-Hydroxy-2′-cyclopenten-1′-yl)-6-phenyl-3H-pyrrolo[2,3-d]-pyrimidine-2-one]	> 100	not toxic		>2.2	>1.1						>2	
8.2 ± 1.3	6.5 ± 0.9	21	5.1 ± 0.6	47.5 ± 5.8	21.3 ± 2.9	CCCCCc1ccc(-c2cc3cn(C4C=CC(O)C4)c(=O)nc3o2)cc1 (stereo not shown) [Compound 3i, 1-(4′-Hydroxy-2′-cyclopenten-1′-yl)-6-(4-pentylphenyl)-3H-furano[2,3-d]-pyrimidine-2-one]	> 100	not toxic		>12.2	>15.3	>4.7	26	55.3	decrease	>19.6	>2.1	15–20
